For orientation: Dmax means the greatest extent of degradation seen. What is called DC50 is the concentration giving 50% degradation.

Like-named read-outs stand apart in the source and are kept apart here.

This assay addresses T1, Androgen Receptor (Homo sapiens, UniProt P10275).
T1 construct: endogenous in cells; host or cells: VCaP cells
T1 sequence (P10275 1-920): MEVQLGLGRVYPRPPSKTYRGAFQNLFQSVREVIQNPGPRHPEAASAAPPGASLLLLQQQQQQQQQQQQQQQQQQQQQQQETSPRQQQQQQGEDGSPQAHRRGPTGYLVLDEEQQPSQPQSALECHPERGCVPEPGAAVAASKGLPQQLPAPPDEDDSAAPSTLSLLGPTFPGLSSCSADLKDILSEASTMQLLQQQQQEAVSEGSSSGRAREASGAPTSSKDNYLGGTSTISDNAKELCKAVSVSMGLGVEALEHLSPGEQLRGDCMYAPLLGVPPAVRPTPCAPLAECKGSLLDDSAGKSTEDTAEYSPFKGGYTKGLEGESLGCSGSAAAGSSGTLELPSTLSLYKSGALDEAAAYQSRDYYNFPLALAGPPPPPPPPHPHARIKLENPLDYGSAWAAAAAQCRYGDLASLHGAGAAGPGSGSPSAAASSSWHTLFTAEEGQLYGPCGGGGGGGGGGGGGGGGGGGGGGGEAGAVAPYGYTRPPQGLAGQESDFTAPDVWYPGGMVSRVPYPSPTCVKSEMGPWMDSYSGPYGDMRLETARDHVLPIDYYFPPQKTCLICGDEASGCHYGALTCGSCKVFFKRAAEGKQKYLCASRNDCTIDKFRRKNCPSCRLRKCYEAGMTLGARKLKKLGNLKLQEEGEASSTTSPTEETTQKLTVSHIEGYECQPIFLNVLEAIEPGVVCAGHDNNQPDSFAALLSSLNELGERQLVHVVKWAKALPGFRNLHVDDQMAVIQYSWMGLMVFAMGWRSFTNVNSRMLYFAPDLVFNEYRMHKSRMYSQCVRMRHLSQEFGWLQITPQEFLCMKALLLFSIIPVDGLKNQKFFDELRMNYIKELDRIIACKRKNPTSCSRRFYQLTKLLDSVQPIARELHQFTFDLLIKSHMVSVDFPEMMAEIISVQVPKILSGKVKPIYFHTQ
The assay is described as follows: Androgen Receptor ELISA assay (PathScan AR ELISA) in VCaP cells: AR degradation, Dmax and DC50. The format is cell-based. The method in brief: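 VCaP cells in phenol red-free RPMI with 5% charcoal-stripped FBS were grown at least 3 days, then given compound as 7 half-log doses in 0.1% DMSO with 0.1 nM R1881 for 24 h. Lysates went into a sandwich AR ELISA with TMB read at 450 nm.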
On the technique in general: In an ELISA, binding on a coated surface is turned into a signal by an enzyme label.

[1] abbreviates: VCaP cells; Table 36; read-out: VCaP DC50.
Setting [2] is: VCaP, VCaP cells; Table 36; read-out: VCaP Dmax (%).
[3] abbreviates: VCaP, read-out: VCaP Dmax (%), VCaP cells; Table 36.

As for `Cc1ncsc1-c1ccc([C@H](C)NC(=O)C2C[C@@H](O)CN2C(=O)C(NC(=O)COCC(F)(F)C(F)(F)C(F)(F)COc2ccc(C(=O)N[C@H]3C(C)(C)[C@H](Oc4ccc(C#N)c(Cl)c4)C3(C)C)cc2)C(C)(C)C)cc1` (stereo partly drawn) [Example 688, (2S,4R)-1-((S)-2-(2-((5-(4-(((1r,3r)-3-(3-chloro-4-cyanophenoxy)-2,2,4,4-tetramethylcyclobutyl)carbamoyl)phenoxy)-2,2,3,3,4,4-hexafluoropentyl)oxy)acetamido)-3,3-diemthylbutanoyl)-4-hydroxy-N-((S)-1-(4-(4-methylthiazol-5-yl)phenyl)ethyl)pyrrolidine-2-carboxamide], the maximal degradation (Dmax) (VCaP, read-out: VCaP Dmax (%)) was greater than 71%. The DC50 (read-out: VCaP DC50; VCaP cells; Table 36) was less than 50 nM.

`Cc1ncsc1-c1ccc([C@H](C)NC(=O)[C@@H]2C[C@@H](O)CN2C(=O)[C@@H](NC(=O)COCCN2CCN(c3cnc(C(=O)N[C@H]4C(C)(C)[C@H](Oc5ccc(C#N)c(C(F)(F)F)c5)C4(C)C)cn3)CC2)C(C)(C)C)cc1` [Example 689, N-((1r,3r)-3-(4-cyano-3-(trifluoromethyl)phenoxy)-2,2,4,4-tetramethylcyclobutyl)-5-(4-(2-(2-(((S)-1-((2S,4R)-4-hydroxy-2-(((S)-1-(4-(4-methylthiazol-5-yl)phenyl)ethyl)carbam-oyl)pyrrolidin-1-yl)-3,3-dimethyl-1-oxobutan-2-yl)amino)-2-oxoethoxy)ethyl)pipera-zin-1-yl)pyrazine-2-carboxamide]: the DC50 under setting [1] is less than 50 nM. Moreover, under setting [2], the Dmax was greater than 71%.

Take `Cc1ncsc1-c1ccc([C@H](C)NC(=O)[C@@H]2C[C@@H](O)CN2C(=O)[C@@H](NC(=O)CN2CCC(O[C@H]3C[C@H](Nc4ccc(C(=O)N[C@H]5C(C)(C)[C@H](Oc6ccc(C#N)c(Cl)c6)C5(C)C)cn4)C3)CC2)C(C)(C)C)cc1` [Example 690, N-((1r,3R)-3-(3-chloro-4-cyanophenoxy)-2,2,4,4-tetramethylcyclobutyl)-6-(((1S,3R)-3-((1-(2-(((S)-1-((2S,4R)-4-hydroxy-2-(((S)-1-(4-(4-methylthiazol-5-yl)phenyl)ethyl)carbam-oyl)pyrrolidin-1-yl)-3,3-dimethyl-1-oxobutan-2-yl)amino)-2-oxoethyl)piperidin-4-yl)oxy)cyclobutyl)amino) nicotinamide]: the DC50 under setting [1] was less than 50 nM. For the same compound, the Dmax (VCaP, read-out: VCaP Dmax (%)) was greater than 71%.

Turning to `Cc1ncsc1-c1ccc([C@H](C)NC(=O)[C@@H]2C[C@@H](O)CN2C(=O)[C@@H](c2ncc(CCCCCNc3ccc(C(=O)N[C@H]4C(C)(C)[C@H](Oc5ccc(C#N)c(Cl)c5)C4(C)C)nc3)n2C)C(C)C)cc1` [Example 691, N-((1r,3r)-3-(3-chloro-4-cyanophenoxy)-2,2,4,4-tetramethylcyclobutyl)-5-((5-(2-((R)-1-((2S,4R)-4-hydroxy-2-(((S)-1-(4-(4-methylthiazol-5-yl)phenyl)ethyl)carbam-oyl)pyrrolidin-1-yl)-3-methyl-1-oxobutan-2-yl)-1-methyl-1H-imidazol-5-yl)pentyl)amino)picolin-amide], the DC50 under setting [1] is greater than 501 nM. Further, the Dmax under setting [2] was less than 25%.

Take `Cc1ncsc1-c1ccc([C@H](C)NC(=O)[C@@H]2C[C@@H](O)CN2C(=O)[C@H](c2ncc(CCCCCNc3ccc(C(=O)N[C@H]4C(C)(C)[C@H](Oc5ccc(C#N)c(Cl)c5)C4(C)C)nc3)n2C)C(C)C)cc1` [Example 692, N-((1r,3r)-3-(3-chloro-4-cyanophenoxy)-2,2,4,4-tetramethylcyclobutyl)-5-((5-(2-((S)-1-((2S,4R)-4-hydroxy-2-(((S)-1-(4-(4-methylthiazol-5-yl)phenyl)ethyl)carbam-oyl)pyrrolidin-1-yl)-3-methyl-1-oxobutan-2-yl)-1-methyl-1H-imidazol-5-yl)pentyl)amino)picolin-amide]: the half-maximal degradation concentration (DC50) under setting [1] was greater than 501 nM. Under setting [2], the greatest degradation seen (Dmax) was less than 25%.

For `Cc1ncsc1-c1ccc([C@H](C)NC(=O)[C@@H]2C[C@@H](O)CN2C(=O)[C@@H](NC(=O)CCCC/C(CCCc2ccc(C(=O)N[C@H]3C(C)(C)[C@H](Oc4ccc(C#N)c(Cl)c4)C3(C)C)nc2)=N\O)C(C)(C)C)cc1` [Example 693, N-((1r,3r)-3-(3-chloro-4-cyanophenoxy)-2,2,4,4-tetramethylcyclobutyl)-5-((E)-9-(((S)-1-((2S,4R)-4-hydroxy-2-(((S)-1-(4-(4-methylthiazol-5-yl)phenyl)ethyl)carbam-oyl)pyrrolidin-1-yl)-3,3-dimethyl-1-oxobutan-2-yl)amino)-4-(hydroxyimino)-9-oxononyl)picolinamide], the DC50 under setting [1] was less than 50 nM. The Dmax under setting [2] is 26 to 50%.

Turning to `Cc1ncsc1-c1ccc(C(C)NC(=O)C2CC(O)CN2C(=O)C(NC(=O)CN2CCOCCOCCN(c3ccc(C(=O)NC4C(C)(C)C(Oc5ccc(C#N)c(Cl)c5)C4(C)C)cc3)CCOCCOCC2)C(C)(C)C)cc1` [Example 694, (2S,4R)-1-((S)-2-(2-(16-(4-(((1r,3r)-3-(3-chloro-4-cyanophenoxy)-2,2,4,4-tetramethylcyclobutyl)carbamoyl)phenyl)-1,4,10,13-tetraoxa-7,16-diazacyclooctadecan-7-yl)acetamido)-3,3-dimethylbutanoyl)-4-hydroxy-N-((S)-1-(4-(4-methylthiazol-5-yl)phenyl)ethyl)pyrrolidine-2-carboxamide], the DC50 under setting [1] was less than 50 nM. The greatest degradation seen (Dmax) under setting [3] was 51 to 70%.

On to `CCO/N=C(\CCCCC(=O)N[C@H](C(=O)N1C[C@H](O)C[C@H]1C(=O)N[C@@H](C)c1ccc(-c2scnc2C)cc1)C(C)(C)C)CCCc1ccc(C(=O)N[C@H]2C(C)(C)[C@H](Oc3ccc(C#N)c(Cl)c3)C2(C)C)nc1` [Example 695, N-((1r,3r)-3-(3-chloro-4-cyanophenoxy)-2,2,4,4-tetramethylcyclobutyl)-5-((E)-4-(ethoxyimino)-9-(((S)-1-((2S,4R)-4-hydroxy-2-(((S)-1-(4-(4-methylthiazol-5-yl)phenyl)ethyl)carbam-oyl)pyrrolidin-1-yl)-3,3-dimethyl-1-oxobutan-2-yl)amino)-9-oxononyl)picolinamide], for which, under setting [1], the half-maximal degradation concentration (DC50) lay within 51 to 500 nM. In addition, the Dmax under setting [2] is 51 to 70%.

Regarding `CC(C)[C@H](C(=O)N1C[C@H](O)C[C@H]1C(=O)N[C@@H](C)c1ccc(C#N)cc1)c1cc(OCCN2CCN(c3ccc(C(=O)N[C@H]4C(C)(C)[C@H](Oc5ccc(C#N)c(Cl)c5)C4(C)C)cn3)CC2)no1` [Example 696, N-((1r,3r)-3-(3-chloro-4-cyanophenoxy)-2,2,4,4-tetramethylcyclobutyl)-6-(4-(2-((5-((S)-1-((2S,4R)-2-(((S)-1-(4-cyanophenyl)ethyl)carb-amoyl)-4-hydroxypyrrolidin-1-yl)-3-methyl-1-oxobutan-2-yl)isoxazol-3-yl)oxy)ethyl)piperazin-1-yl)nicotinamide], the DC50 under setting [1] was less than 50 nM. Moreover, under setting [3], the maximal degradation (Dmax) is less than 25%.

Consider `CC(NC(=O)C1CC(O)CN1C(=O)C(c1cc(OCCN2CCN(c3ccc(C(=O)NC4C(C)(C)C(Oc5ccc(C#N)c(Cl)c5)C4(C)C)cn3)CC2)no1)C(C)C)c1ccc(C#N)cc1` [Example 697, N-((1r,3r)-3-(3-chloro-4-cyanophenoxy)-2,2,4,4-tetramethylcyclobutyl)-6-(4-(2-((5-((R)-1-((2S,4R)-2-(((S)-1-(4-cyanophenyl)ethyl)carb-amoyl)-4-hydroxypyrrolidin-1-yl)-3-methyl-1-oxobutan-2-yl)isoxazol-3-yl)oxy)ethyl)piperazin-1-yl)nicotinamide], for which, under setting [1], the DC50 is less than 50 nM. In addition, the Dmax under setting [3] was 26 to 50%.

These data come from US11427548B2 (Arvinas Operations, Inc., priority 2015, dated 2022).
